Consider one substance from US8586369B2, “Ion channel-forming peptides” (The Regents of the University of California, priority 2007, dated 2013).

Bounds are passed on as bounds.

What all share (assay type): biochemical
The nature of experiment [1]: Single-channel conductance of homodimeric gA pores in planar lipid bilayers made from DiPhyPC (Example 1). Conditions: 20 mM KCl plus 10 mM KOH.
Experiment [2] is described as follows: Single-channel conductance in negatively charged planar bilayers (50% POPE, 50% DOPS). Conditions: 0.01 M KCl, 0.1 mM HEPES pH 7.4. The source says: The data acquisition boards for both amplifiers were set to a sampling frequency of 15 kHz.
The nature of experiment [3]: Single-channel conductance of homodimeric gA pores in planar lipid bilayers made from DiPhyPC (Example 1). Conditions: for Single-channel conductance γ: HEPES pH 7.4, DiPhyPC bilayers, slope of I-V curves; for γ-ratio to gA-gA: pH 7.4, DiPhyPC. The method, then: Formation of planar lipid bilayers: We formed most planar lipid bilayers with the “folding technique.” We used a Teflon film (Eastern Scientific Inc, pore diameter 0.18-0.25 mm) was pretreated on each side with 2.5 μL of 5% hexadecane in pentane and air dried. This film was mounted using vacuum grease (Dow Corning, High vacuum grease) to a custom made Teflon chamber separating two buffer compartments each with a volume capacity of 4 mL. After adding 1 mL of electrolyte (0.01 M to 1.00 M KCl buffered with HEPES pH 7.4) to each compartment, lipids were spread from a solution in pentane onto the surface of the electrolyte solutions (specifically, 4-6 μL from 25 mg mL-l solution DiPhyPC or from 6.25 mg mL-l each of 50% DOPS and 50% POPE or from 25 mg mL-l DODAP mixed with 25 mg mL-l DiPhyPC in a 1:9 ratio. Three additional milliliters of electrolyte solution were added to each side of the chamber to raise the liquid levels above the aperture. We formed the bilayers from apposition of two monolayers of lipids using the method described by Montal et al. (Proc. Natl. Acad. Sci. U.S.A. 1972, 69, 3561-3566). Briefly, bilayers were obtained by consecutively raising the liquid level in each compartment until the pore was completely covered by electrolyte. If at this point the pore was not closed by a lipid bilayer, then the liquid level in one or both compartments was lowered below the pore level by aspirating electrolyte into a 3 mL syringe, followed by raising the electrolyte solution again.
Planar lipid bilayers were also made with the “painting technique”. We pretreated each side of a pore in a bilayer cup (Warner Instruments, Delrin perfusion cup, volume 1 mL, pore diameter 250 μm) with ˜2 μL of a 25 mg mL-l solution of DiPhyPC in hexane. After adding recording buffer (0.01 M KCl to 1.00 M KCl buffered with HEPES, pH=7.4) to both compartments of the bilayer setup, we “painted” a solution of 20 mg mL-l DiPhyPC in n-decane over the pore by using a paint brush with a fine tip. We followed the thinning of the decane droplet to form a planar bilayer by monitoring the capacitance of the bilayer. After verifying that bilayers were stable for several minutes (in the range of ±200 mV applied voltage) and that the capacitances were above 80-90 pF, gA was added (4-8 μL from 1 ng mL-l in ethanol), derivatives 1 or 2 (2-10 μL from 100 ng mL-l in ethanol), or derivative 3 (4-10 μL from 100 ng mL-l in ethanol) directly to the bilayer chambers.
Ion channel measurements: We performed single channel recordings in “voltage clamp mode” using Ag/AgCl electrodes (Warner Instruments) in each compartment of the bilayer chambers. Data acquisition and storage was carried out using custom software in combination with either an EPC-7 patch clamp amplifier from List Medical Electronic (set at a gain of 100 mV pA-1 and a filter cutoff frequency of 3 kHz) or a Geneclamp 500 amplifier from Axon Instruments (with a CV-5B 100GU headstage, set at a gain of 100 mV pA-1 and filter cutoff frequency of 1 kHz). We used the EPC-7 amplifier for most folded bilayers and the Geneclamp 500 amplifier for most painted bilayers. The data acquisition boards for both amplifiers were set to a sampling frequency of 15 kHz. All current traces shown in the figures were further filtered using a digital Gaussian low-pass filter with a cutoff frequency of 30 Hz. The current traces we used to generate all data that was recorded at applied potentials s 50 mV were filtered at 10 Hz.
We performed the analysis of the single channel current traces by computing histograms of the currents from the original current-time traces with ClampFit 9.2 software from Axon Instruments. From these histograms we extracted the main current values by fitting a Gaussian function to the peaks in the histograms. […] Single channel conductances reported in this paper always refer to the main conductance state (i.e. to the dominant peaks in the current histograms).

Experiment [4] is described as follows: Single-channel conductance in bilayers with positively-charged headgroups (10% DODAP, 90% DiPhyPC). Conditions: 20 mM KCl. The method, then: The conductance of gA-gA and 2-2 in lipid bilayers that contained 10% of a lipid with positively-charged headgroups (here, 1,2-dioleoyl-3-(dimethylamino)propane, DODAP, and 90% DiPhyPC) was measured.
Formation of planar lipid bilayers: We formed most planar lipid bilayers with the “folding technique.” We used a Teflon film (Eastern Scientific Inc, pore diameter 0.18-0.25 mm) was pretreated on each side with 2.5 μL of 5% hexadecane in pentane and air dried. This film was mounted using vacuum grease (Dow Corning, High vacuum grease) to a custom made Teflon chamber separating two buffer compartments each with a volume capacity of 4 mL. […]
Ion channel measurements: We performed single channel recordings in “voltage clamp mode” using Ag/AgCl electrodes (Warner Instruments) in each compartment of the bilayer chambers. […] The current traces we used to generate all data that was recorded at applied potentials s 50 mV were filtered at 10 Hz. […]

taurinyl gramicidate [compound 2]: in experiment [1] (DiPhyPC), the “conductance compared with gA-gA at pH 12” value is on record as “significantly larger”. The “γ at pH 12” value in experiment [1] (DiPhyPC bilayers, homodimers) is given as 9.8 ± 0.2 pS. For the same substance, in experiment [2], the “Single-channel conductance γ in negatively charged bilayers” value amounted to 24.4±0.5 pS. Besides, the “Single-channel conductance γ” value in experiment [3] (0.01 M KCl, homodimers) is listed as 4.3 ± 0.3 pS; in experiment [3] (0.10 M KCl, homodimers), 12.6 ± 0.4 pS; in experiment [3] (1.00 M KCl, homodimers) it was 21.5 ± 0.3 pS. In addition, the “ratio between the conductance of 2-2 and gA-gA” value in experiment [3] (0.02 M KCl, 100 mV applied potential) was determined as 1.4; in experiment [3] (0.02 M KCl, 200 mV applied potential), 1.5. Moreover, the “conductance compared with gA-gA at pH 7.4” value in experiment [3] (20 mM KCl, DiPhyPC) is listed as “significantly larger”. Also, the “γ at pH 7.4” value in experiment [3] (20 mM KCl, DiPhyPC bilayers, homodimers) was 5.8 ± 0.1 pS. Further, in experiment [3] (0.02 M KCl, DiPhyPC, transmembrane potentials above 100 mV), the “overall conductance of heterodimeric pore of gA and 2, with 2 at the entrance of the pore” value was “approximately the same as that of homodimeric pores from 2”. The “γ-ratio to gA-gA” value in experiment [3] (0.10 M KCl) is given as 1.2; in experiment [3] (1.00 M KCl) it was 1.1. For the same substance, the “current as share of the estimated maximum, mass transport limited current (3 pA)” value in experiment [3] (200 mV applied potential, 0.02 M KCl) is listed as around 30%. In experiment [3] (approximately 1.00 M KCl), the “difference in single channel conductance compared to gA” value was below 10%. In addition, the “increase of the relative ratio of conductance of 2-2 to gA-gA versus purely zwitterionic lipids” value in experiment [4] is listed as 10%.
